Experiments:
[1] = Drug loading by soaking hydrogel discs in drug solution (weight gain); type: physicochemical; details: 48-hour soak, HEMA-based discs with 15% MPMA vs without; FIG. 5
Description: The HEMA-based hydrogels of formulation 5 in Table 1, were made with and without 15% MPMA. Unreacted components were extracted by washing in DI water for at least 3 hours, followed by washing in a 50:50 mixture of reagent alcohol and DI water for at least 3 hours, then washing again in DI water for at least 3 hours. Discs 15 mm in diameter were punched out and dried in a vacuum dessicator for at least 72 hours. The dry discs were weighed to get an initial weight without drug. Discs were then placed in a drug solution for 48 hours on a shaker at 200 rpm. Drug solutions used in this study can be found in Table 2. After 48 hours, the discs were removed from the drug solution, patted with a Kimwipe to remove solution from the surface, and then dried in a vacuum dessicator for at least 48 hours. The dry drug-loaded discs were weighed, and the amount of drug loaded was determined as the drug-loaded disc weight minus the initial weight.

[2] = Drug release into PBS and extraction from HEMA-based hydrogel discs; type: physicochemical; details: for effect of MPMA on total amount of drug released and extracted: HEMA-based discs with MPMA vs without, FIG. 7; for effect of MPMA on release over time: HEMA-based material with vs without MPMA, FIGS. 10 and 11
Description: At 0.5, 1, 2, 4, 6, and 8 hours the PBS was removed and fresh PBS was added.

[3] = Formulation 3
Description: HEMA-based hydrogels were prepared as described in Example 4 using Formulation 3.

[4] = Loss of crosslinked-in dexP during extraction washes (HPLC-UV); type: physicochemical; details: formulation 4 hydrogels with MPMA compared to without MPMA; FIG. 4
Description: Hydrogels were placed in deionized (DI) water for 35 minutes at 37° C./200 rpm, followed by 3 times in isopropyl alcohol for 25 minutes each at 37° C./200 rpm, then 2 additional times in DI water for 25 minutes each.

[5] = dexP release from silicone-based hydrogel discs into PBS; type: physicochemical
Description: Silicone-based hydrogels similar to formulation 2 in Table 1, but with only 1% EGDMA, were made with and without 15% MPMA. Unreacted components were extracted as described in Example 4.

[6] = In vitro drug release into and across sclera tissue (Franz cell); type: in vitro ADME, Porcine; details: 4 minutes, 4 hours, 8 hours; HPLC-UV; FIG. 13
Description: An experimental setup (shown in FIG. 12) for determining drug release from a soft contact lens hydrogel disc into and across sclera tissue was created using a glass Franz cell. The Franz cell was filled with PBS. A cell strainer (BD Falcon, […] nylon, 23 mm ID) was fitted onto the Franz cell as a framework to hold the sclera and hydrogel disc together. Porcine sclera tissue (21 mm diameter, 1 mm thick) was placed in the cell strainer, the drug-loaded hydrogel disc was placed onto the sclera tissue, and a glass bottle was placed on top of the disc to firmly hold the assembly together in the cell strainer. At 4 minutes, 4 hours, or 8 hours, the sclera tissue was removed and a sample of the PBS from the Franz cell was taken. The sclera tissue was digested using collagenase, and the amount of dexP in the digested sclera tissue and PBS was determined using HPLC-UV.

[7] = rabbit, in vivo
Description: Following sterilization, lenses were handled aseptically. […] Control (drug-free) lenses were soaked and then stored (at 4° C.) in sterile isotonic saline until use. Controls were used only for retention and ocular health assessments.
A total of 11 New Zealand White rabbits were used in this study: 2 animals were in the control group and 9 animals in the treatment group. The nictitating membranes of the rabbits were removed and the rabbits allowed to recover for 2 weeks prior to study initiation. For the study, a contact lens was placed on each eye of an animal and a tarsorrhaphy performed by placing a single staple in the corner of the eyelids to aid in retention of the contact lenses. Cage side observations of the animals occurred every 2 hours to monitor lens retention and ocular health. At 2, 4, and 8 hours following lens placement, 3 animals in the treatment group were euthanized, the staple and contact lens from each eye were removed, and ocular health was noted. The following tissues were then isolated: aqueous humor (AH), vitreous humor (VH), retina, choroid, cornea, conjunctiva, and sclera. The aqueous humor was retrieved from each eye using a sterile 30-gauge needle on a 1 mL syringe while the eyes were still intact in the animal. Tissues were transferred to pre-weighed, pre-labeled tubes in a box of dry ice. […]

| Structure (SMILES) | effect of MPMA on amount of drug loaded [1] | effect of MPMA on total amount of drug released and extracted [2] | effect of MPMA on release over time [2] | also measured |
| --- | --- | --- | --- | --- |
| C[C@]12C=CC(=O)C=C1CC[C@@H]1[C@@H]2[C@@H](O)C[C@@]2(C)[C@H]1CC[C@]2(O)C(=O)COP(=O)(O)O [predP, Prednisolone phosphate] | significantly increased the amount of drug loaded | significantly greater | – | – |
| C[C@@H]1C[C@H]2[C@@H]3CCC4=CC(=O)C=C[C@]4(C)[C@@]3(F)[C@@H](O)C[C@]2(C)[C@@]1(O)C(=O)COP(=O)([O-])[O-].[Na+].[Na+] [disodium dexP] | – | – | – | loading of dexP, disodium form compared to free acid form ([3]; 7 days soak in 40 mg/ml solution, FIG. 16): decreased loading and release; release of dexP, disodium form compared to free acid form ([3]; PBS up to 8 hours, FIG. 17): decreased loading and release |
| NC[C@H]1O[C@H](O[C@H]2[C@H](O)[C@@H](O[C@H]3O[C@H](CO)[C@@H](O)[C@H](N)[C@H]3O)[C@H](N)C[C@@H]2N)[C@H](N)C[C@@H]1O [Tobramycin] | did not affect loading | significantly decreased the amount of drug released and extracted | significantly reduced | – |
| Cc1ncc([N+](=O)[O-])n1CCO [Metronidazole] | did not affect loading | did not affect the amount released and extracted | very little effect | total amount of drug released and extracted compared between drugs ([2]; 10 mg/ml soaking solution for metronidazole vs 40 mg/ml for the other drugs): lower than for dexP and predP |
| C[C@@H]1C[C@H]2[C@@H]3CCC4=CC(=O)C=C[C@]4(C)[C@@]3(F)[C@@H](O)C[C@]2(C)[C@@]1(O)C(=O)COP(=O)(O)O [dexP, dexamethasone phosphate] | significantly increased the amount of drug loaded | significantly greater | – | amount of incorporated dexP removed during water and alcohol washes [4]: very little of the incorporated dexP was removed; total amount of dexP released ([5]; silicone-based discs with 15% MPMA vs without, initial soak, release in PBS, FIG. 6A): significantly greater; amount of dexP released after re-loading ([5]; silicone-based discs with MPMA vs without, re-soaked overnight, FIG. 6B): greater amount of dexP release; amount of dexP in sclera tissue and PBS reservoir [6]: increasing amount of dexP in the sclera tissue and PBS over time; detection in ocular tissues [7]: detected in the tissues of treated animals at each timepoint; drug reaching the back of the eye [7]: drug concentrations observed in the VH, retina, and choroid |
